Reference: PubChem BioAssay (NCI)
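These data come from cells grown in 96-well plates and exposed to compound for 48 hours at five concentrations. At the TGI there is no net growth.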

Columns and labels:
Test in all cases: DTP human tumour cell line panel, 48 h
DMS 114 small cell lung = test system: DMS 114 small cell lung
OVCAR-3 ovarian = test system: OVCAR-3 ovarian
LOX IMVI melanoma = test system: LOX IMVI melanoma
TK-10 renal = test system: TK-10 renal
IGROV1 ovarian = test system: IGROV1 ovarian
SK-OV-3 ovarian = test system: SK-OV-3 ovarian
LXFL 529 NSCLC = test system: LXFL 529 NSCLC
HOP-62 NSCLC = test system: HOP-62 NSCLC
UACC-62 melanoma = test system: UACC-62 melanoma
A549 NSCLC = test system: A549 NSCLC
K-562 leukemia = test system: K-562 leukemia
SNB-19 CNS = test system: SNB-19 CNS
OVCAR-4 ovarian = test system: OVCAR-4 ovarian
MALME-3M melanoma = test system: MALME-3M melanoma
MOLT-4 leukemia = test system: MOLT-4 leukemia
OVCAR-8 ovarian = test system: OVCAR-8 ovarian
NCI-H23 lung = test system: NCI-H23 lung
RXF 393 renal = test system: RXF 393 renal
U251 CNS = test system: U251 CNS
ACHN renal = test system: ACHN renal
EKVX NSCLC = test system: EKVX NSCLC
HOP-18 NSCLC = test system: HOP-18 NSCLC
UO-31 renal = test system: UO-31 renal
SW-620 colon = test system: SW-620 colon
COLO 205 colon = test system: COLO 205 colon
SK-MEL-28 melanoma = test system: SK-MEL-28 melanoma
NCI-H226 lung = test system: NCI-H226 lung
CAKI-1 renal = test system: CAKI-1 renal
HCT-15 colon = test system: HCT-15 colon
XF 498 CNS = test system: XF 498 CNS
HT29 colon = test system: HT29 colon
CCRF-CEM leukemia = test system: CCRF-CEM leukemia
UACC-257 melanoma = test system: UACC-257 melanoma
SN12C renal = test system: SN12C renal
M14 melanoma = test system: M14 melanoma
OVCAR-5 ovarian = test system: OVCAR-5 ovarian
HOP-92 NSCLC = test system: HOP-92 NSCLC
M19-MEL melanoma = test system: M19-MEL melanoma
SF-539 CNS = test system: SF-539 CNS
A498 renal = test system: A498 renal
KM12 colon = test system: KM12 colon
SNB-78 CNS = test system: SNB-78 CNS
SNB-75 CNS = test system: SNB-75 CNS
NCI-H522 lung = test system: NCI-H522 lung
HCC-2998 colon = test system: HCC-2998 colon
SK-MEL-2 melanoma = test system: SK-MEL-2 melanoma
SK-MEL-5 melanoma = test system: SK-MEL-5 melanoma
SF-295 CNS = test system: SF-295 CNS
HL-60(TB) leukemia = test system: HL-60(TB) leukemia
786-0 renal = test system: 786-0 renal
HCT-116 colon = test system: HCT-116 colon
DLD-1 colon = test system: DLD-1 colon
DMS 273 small cell lung = test system: DMS 273 small cell lung
KM20L2 colon = test system: KM20L2 colon
NCI-H460 lung = test system: NCI-H460 lung
SF-268 CNS = test system: SF-268 CNS
RPMI-8226 leukemia = test system: RPMI-8226 leukemia
SR leukemia = test system: SR leukemia

Measured: TGI

Cc1cccc(C)c1NC(=O)C(=O)C(C#N)c1ccccc1 (stereo not drawn)
not listed: RPMI-8226 leukemia | SR leukemia
> 100 µM: all other assays above

CCOC(=O)[C@H]1Nc2ccc(Cl)cc2[C@H]2CCC[C@@H]12
64.4 µM: RXF 393 renal
62.2 µM: UACC-257 melanoma
not listed: SK-OV-3 ovarian | CCRF-CEM leukemia | HOP-92 NSCLC | A498 renal | HL-60(TB) leukemia
> 100 µM: all other assays above

O=C(c1ccccc1)c1ccc2cccc(OC3OC(CO)C(O)C(O)C3O)c2n1 (stereo not drawn)
82 µM: A498 renal
not listed: SK-OV-3 ovarian | CCRF-CEM leukemia | HOP-92 NSCLC | M19-MEL melanoma | HL-60(TB) leukemia
> 100 µM: all other assays above

CC(=O)Nc1ccc(C2C(C(=O)Nc3ccccc3)=C(C)NC(C)=C2C(=O)Nc2ccccc2)cc1
> 82.5 µM: DMS 114 small cell lung
not listed: SR leukemia
> 100 µM: all other assays above

C/C(CC(=O)Nc1ccc(Cl)c(Cl)c1)=N/NC(=O)C[N+](C)(C)C
35.5 µM: LOX IMVI melanoma
55.6 µM: DMS 114 small cell lung
43.2 µM: SR leukemia
63.4 µM: RPMI-8226 leukemia
not listed: SK-OV-3 ovarian | U251 CNS | SW-620 colon | NCI-H522 lung
> 100 µM: all other assays above
